According to patent US8293231B2, “Methods and compositions for treating ischemia” (Blue Blood Biotech Corp., priority 2005, dated 2012):

Experiments:
[1] = system: MMP-1, MMP-2, MMP-3, and MMP-9 in HUVEC conditioned medium; assay: Gelatin and casein zymographies; format: cell-based, human; details: 10 mM EDTA in incubation buffer
Protocol: (§1) HUVECs were seeded at 80% confluence on 100-mm dishes in M199 medium. After 24 h, cells were rinsed with serum-free M199 twice and incubated in serum-free M199 with various concentrations of TMD23, VEGF (10 ng/mL), or PMA (70 ng/mL) for 12 h. The conditioned medium containing […] secreted proteins was analyzed by gelatin- and casein-based zymographies. The digested area appeared clear on a blue background, indicating the location of matrix metalloproteinase (MMP) activity. To further verify MMP caseinolytic activity, the casein-containing gel was incubated with incubation buffer containing 10 mM EDTA, an inhibitor of MMPs, to observe disappearance of the clear band. Plasminogen activator inhibitor (PAI) activity was measured by titrating samples with increasing amounts of tissue-type plasminogen activator (t-PA) (Boehringer Ingelheim) into a fixed volume of endothelial-cell-conditioned media.
as §1, with “zymographies. Lee O H, et al., Identification of angiogenic properties of insulin-like growth factor II in in vitro angiogenesis models. Brit J. Cancer. 2000; 82:385-391.” for “zymographies.”, “media. Shi G Y., et al., Plasmin and the regulation of tissue-type plasminogen activator biosynthesis in human endothelial cells. […]” for “media.”

HUVECs [2] = assay: In vitro Matrigel angiogenesis assay (tube formation); format: cell-based, human; details: for Effect on the stimulatory effect of TMD23 on HUVEC tube formation: IgG 10 μg/mL, inhibitors 10 μM
Protocol: (§2) Growth-factor-reduced Matrigel (BD Biosciences) was thawed at 4° C. A total of 200 μL Matrigel was added to wells of a 48-well plate and polymerized 30 min at 37° C. Two hundred μL cell suspension containing various concentrations of VEGF, TMD23, or TMD23 in the presence of polyclonal rabbit anti-TMD23 antibody (10 μg/mL) or various signaling pathway inhibitors were plated onto Matrigel-coated wells at a density of 2.4×10^4 cells/well in M199 containing 10% FBS for 24 h at 37° C. in a 5% CO2 humidified atmosphere. Each concentration was tested in triplicate in the same plate, with wells photographed using a Leica camera (40× magnification). Tube length was quantified by measuring tubes in five randomly chosen fields from each well using MetaMorph software. Experiments were repeated at least three times.
as §2, with “5° k” for “5%”

[3] = system: PAI activity in conditioned media of HUVECs; assay: Plasminogen activator inhibitor (PAI) activity assay; format: cell-based, human; details: 12 h; 100 or 1000 ng/mL TMD23, 70 ng/mL PMA, 10 ng/mL VEGF
Protocol: as §1
as §1, with “zymographies. Lee O H, et al., Identification of angiogenic properties of insulin-like growth factor II in in vitro angiogenesis models. Brit J. Cancer. 2000; 82:385-391.” for “zymographies.”, “media. Shi G Y., et al., Plasmin and the regulation of tissue-type plasminogen activator biosynthesis in human endothelial cells. […]” for “media.”

HUVECs [4] = assay: Chemotaxis assay (Transwell); format: cell-based, human; details: inhibitor or antibody present with TMD23
Protocol: (§3) The chemotactic motility of HUVECs was assayed using Transwell (Costar) with 6.5-mm diameter polycarbonate filters (8-μm pore size). The lower filter surface was coated with 10 μg gelatin (Sigma-Aldrich). Various concentrations of TMD23 in the absence or presence of 10 μg/mL polyclonal rabbit anti-TMD23 antibody or 10 ng/mL vascular endothelial growth factor (VEGF) (R & D Systems, Inc.) in M199 were placed in the lower wells. One hundred mL cell suspension containing 1×10^5 cells was loaded into each of upper well. The chamber was incubated at 37° C. for 4 h. Cells were fixed with methanol and stained with 4′,6′-diamidino-2-phenylindole (DAPI). Chemotaxis was quantified with optical microscopy (Leica) at 100× magnification using MetaMorph imaging software (Universal Imaging Corporation) by counting the cells that migrated to the filter's lower side. Five random fields in each well were counted. Each sample was assayed in triplicate, and assays were repeated three times. To determine the role of extracellular signal-regulated kinase 1/2 (ERK1/2), p38 mitogen-activated protein kinase (MAPK), and phosphatidylinositol 3-kinase (PI3 kinase)-protein kinase B/Akt (Akt) in TMD23-mediated cell migration, assays were performed in the presence of U0126, a MAPK/ERK kinase (MEK) inhibitor, SB 203580, a p38 MAPK inhibitor, and LY 294002, a PI3 kinase inhibitor. Cell viability as determined by trypan blue staining was not altered by treatment. 00126 was purchased from Promega, with SB 203580 and LY 294002 from Calbiochem.
as §3, with “hundred μL” for “hundred mL”, “MAPK/ERK kinase-(MEK)” for “MAPK/ERK kinase (MEK)”, “treatment. U0126” for “treatment. 00126”

[5] = system: human umbilical vein endothelial cells (HUVECs); assay: Cell proliferation assay (BrdU incorporation); format: cell-based; details: BrdU incorporation, FIG. 2A
Protocol: (§4) To evaluate the effect of TMD proteins on DNA synthesis in human umbilical vein endothelial cells (HUVECs), we performed a 5-bromo-2′-deoxyuridine (BrdU) incorporation assay with a commercial quantification kit (Roche Diagnostic GmbH) and manufacturer's protocol. Mitogenic effects induced by TMD proteins were also determined in the presence of polyclonal rabbit anti-TMD23 antibody (prepared by GlycoNex, Inc., Taiwan) that was purified by protein G-Sepharose column (Amersham Pharmacia Biotech AB).
as §4, with “(HUVECs),” for “(HUVECs), we performed”, “assay were performed” for “assay”

[6] = system: Matrigel plugs in FVB mice; assay: Murine angiogenesis assay (Matrigel plug); format: in vivo; details: for Appearance of Matrigel plugs, with heparin: day 4, plus heparin (30 U), TMD23 10, 100, or 1,000 ng, bFGF 250 ng, VEGF 50 ng; for Magnitude of angiogenic reaction with heparin versus without: gels supplemented with both angiogenic factor and heparin
Protocol: To assess angiogenic effects in vivo, growth-factor-reduced liquid Matrigel (0.5 mL) containing heparin (60 U/mL) and various concentrations of TMD23, bFGF or VEGF was subcutaneously injected into FVB mice near the abdominal midline. Matrigel with PBS plus heparin served as the negative control, with bFGF and VEGF plus heparin as the positive control. Four days after injection, mice were sacrificed and Matrigel plugs were surgically removed. For macroscopic analysis of angiogenesis, hemoglobin content in Matrigel was measured using Drabkin reagent 525 (Sigma-Aldrich). For histological analysis, rat anti-mouse CD31 (PECAM-1, platelet endothelial cell adhesion molecule-1) antibody (Pharmingen) was used. The same specimens were used for hematoxylin and eosin (H&E) staining.

[7] = system: human melanoma A2058 cells in Matrigel; assay: Effect of TMD23 on tumor neoangiogenesis; format: in vivo, athymic nude mice; details: 18 days
Protocol: To assess TMD23 effects on tumor neoangiogenesis, 1×10^6 human melanoma A2058 cells (ATCC® CRL-11147) were mixed with Matrigel (0.5 mL) containing heparin (60 U/mL) and various concentrations of TMD23 and subcutaneously injected into athymic nude mice. Matrigel plugs were harvested after 18 days and frozen in liquid nitrogen. Blood vessels were detected by immunohistochemistry using anti-CD31 antibody as described above. Microvessel density (MVD) was calculated by counting six highly vascularized fields in each section (200× magnification; MetaMorph software).

[8] = system: Matrigel plugs in FVB mice; assay: Murine angiogenesis assay (Matrigel plug); format: in vivo

In the case of `O=C(O)CN(CCN(CC(=O)O)CC(=O)O)CC(=O)O` [EDTA, reference compound], the “Effect on the caseinolytic MMP-3 band” value [1] is reported as “blocked specifically”.
In the case of `COC(=O)[C@@H](N)CCCNC(=N)N[N+](=O)[O-]` [L-NAME, N^G-nitro-L-arginine methyl ester], the “Effect on the stimulatory effect of TMD23 on HUVEC tube formation” value (from here on “Effect … on HUVEC tube formation”) (HUVECs [2]) is reported as “blocked”.
`CCCCCCCCCCCCCC(=O)O[C@@H]1[C@@H](C)[C@@]2(O)[C@@H](C=C(CO)C[C@]3(O)C(=O)C(C)=C[C@@H]23)[C@@H]2C(C)(C)[C@]12OC(C)=O` [PMA] was tested, and the “PAI activity in conditioned media of HUVECs” value [3] was “decreased significantly”.
`C[S+]([O-])c1ccc(-c2nc(-c3ccncc3)c(-c3ccc(F)cc3)[nH]2)cc1` (stereo not shown) [SB 203580, reference compound] was tested, and the “Effect on the stimulatory effect of TMD23 on HUVEC migration” value (HUVECs [4]) was “blocked” and the “Effect … on HUVEC tube formation” value (HUVECs [2]) was “blocked”.
For `N#CC(=C(/N)Sc1ccccc1N)/C(C#N)=C(\N)Sc1ccccc1N` [U0126, reference compound], the “Effect on the stimulatory effect of TMD23 on HUVEC migration” value (HUVECs [4]) was “blocked” and the “Effect … on HUVEC tube formation” value (HUVECs [2]) was “blocked”.
In the case of “TMD2: Recombinant human thrombomodulin fragment, amino acids Ala242-Cys480 of SEQ ID NO: 2, containing six EGF-like structures (D2)”, the “DNA synthesis in HUVECs” value [5] is reported as “stimulated DNA synthesis”.
With “basic fibroblast growth factor [bFGF, reference compound]” the “Appearance of Matrigel plugs, with heparin” value [6] was “bright red”, the “Magnitude of angiogenic reaction with heparin versus without” value [6] was “considerably greater” and the “Blood vessels in Matrigel plugs (CD31 staining)” value [7] was “significantly more blood vessels”. The “Tumor size developed by Matrigel plugs containing A2058 cells” value ([7]; compared with A2058 cells alone) was “bigger” and the “Appearance of Matrigel plugs, without heparin” value [8] was “pale”.
With “vascular endothelial growth factor [VEGF, reference compound]” the “Appearance of Matrigel plugs, with heparin” value [6] was “bright red”, the “Magnitude of angiogenic reaction with heparin versus without” value [6] was “considerably greater” and the “Hemoglobin content of recovered Matrigel plugs” value ([6]; plus heparin, compared with controls) was “significantly increased”. For the same molecule, the “HUVEC tube formation on Matrigel” value (HUVECs [2]; 24 h, VEGF 10 ng/mL, TMD23 5 to 250 ng/mL) was “formed elongated capillary-like structures, with complete networks”, the “PAI activity in conditioned media of HUVECs” value [3] was “decreased significantly” and the “Appearance of Matrigel plugs, without heparin” value [8] was “pale”.
